The values below come from article PMC8068036, “Synthesis of New Biscoumarin Derivatives, In Vitro Cholinesterase Inhibition, Molecular Modelling and Antiproliferative Effect in A549 Human Lung Carcinoma Cells” (International Journal of Molecular Sciences, 2021).

The target of data set [1] is T1, hBChE (human plasma) (Homo sapiens, UniProt P06276).
T1 construct: Human plasma was used as a source of BChE; from tissue; host or cells: human plasma from heparinized blood
Put plainly: biochemical. The data set is classed as biochemical. The conditions noted are these: human plasma BChE, mean of at least three experiments. The procedure:
(§1) Human recombinant AChE (EC 3.1.1.7), 5,5′-dithiobis(2-nitrobenzoic acid) (Ellman′s reagent, DTNB), phosphate buffer (PB, 0.1 M, pH 7.4), and acetylthiocholine (ATC) and butyrylthiocholine (BTC), were purchased from Sigma-Aldrich, Prague, Czech Republic. Human plasma was used as a source of BChE and was prepared from heparinized human blood. The blood was centrifuged for 20 min (4 °C, 2300× g) on a Hettich Universal 320R centrifuge. The plasma was separated and stored at […]. Polystyrene Nunc 96-well microplates with a flat bottom shape (ThermoFisher Scientific, Waltham, MA, USA) were used for measuring purposes.
(§2) All of the assays were carried out in a 0.1 M phosphate buffer, pH 7.4. The assay medium (100 µL) consisted of 40 µL of 0.1 M phosphate buffer (pH 7.4), 20 µL of 0.01 M DTNB, 10 µL of the enzyme, and 20 µL of 0.01 M substrate ATC/BTC iodide solution).
(§3) The tested compounds were preincubated for 5 min prior to use. The reaction was initiated immediately upon addition of 20 µL of the substrate. […] Each concentration was assayed in triplicate. Software GraphPad Prism 5 (San Diego, CA, USA) was used in the evaluation of the statistical data.

In data set [2] the target is T2, human recombinant AChE (Homo sapiens, UniProt P22303).
T2 construct: purchased Sigma-Aldrich, Prague, Czech Republic
Put plainly: biochemical. The format is biochemical. Conditions: mean of at least three experiments. The procedure: as §1, §2, §3

The nature of data set [3]: in vitro. The procedure: The parallel artificial membrane permeability assay (PAMPA) is used as a non-cell-based in vitro assay to predict BBB penetration and is carried out in a coated 96-well membrane filter. In our assays, the filter membrane of the donor plate was coated with PBL (Polar Brain Lipid, Avanti, Denver, CO, USA) in dodecane (4 µL of 20 mg mL^−1 PBL in dodecane), and the acceptor well was filled with 300 µL of phosphate buffered saline (PBS) (pH 7.4; VA). The tested compounds were first dissolved in DMSO, and the resulting mixture was diluted with PBS (pH 7.4) to reach the final concentration (40–100 µM) in the donor well. […] Three hundred microliters of the donor solution (VD) were added to the donor wells, and the donor filter plate was carefully placed onto the acceptor plate to ensure that the coated membrane was “in contact” with both the donor solution and the acceptor buffer. The test compound diffused from the donor well through the polar brain lipid membrane (area = 0.28 cm^2) to the acceptor well. The concentration of the tested compound in both the donor and acceptor wells was assessed after 3, 4, 5, and 6 h of incubation, respectively, in quadruplicate using a UV plate reader Synergy HT (Biotek, Winooski, VT, USA) at the maximum absorption wavelength of each compound. Additionally, solutions at the theoretical equilibrium of the given compound (i.e., the theoretical concentration if the donor and acceptor compartment were simply combined) were also prepared.

Data set [4] deals with A549 cells. Description: MTT assay, A549. The data set is classed as cell-based, human. The conditions noted are these: for IC50: Homo sapiens. The procedure: Human lung carcinoma cell line A549 and CCD-18Co colon fibroblasts were purchased from the American Type Culture Collection (ATCC, Rockville, MD, USA). The A549 cells were cultured in a complete RPMI-1640 medium (Sigma-Aldrich, St. Louis, MO, USA), and CCD-18Co cells were cultured in an MEM medium (PAN-Biotech GmbH, Aidenbach, Germany). The media were supplemented with 10% fetal bovine serum (FBS; Biosera, Nuaille, France) and antibiotics (1% Antibiotic-Antimycotic 100× and 50 × 10^−3 g l^−1 gentamicin; Biosera) at 37 °C, 95% humidity, and 5% CO2.
Prior to the selected treatments, cells were seeded on 12-well μ-Chamber slides (ibidi GmbH, Martinsried, Germany) and 6 and/or 96-well plates (TPP, Trasadingen, Switzerland) and left to settle for 24 h. The biscoumarin derivative solutions (at concentrations ranging from 10–100 µM) were then added to cells for 24 or 48 h, and analysis was subsequently performed.
MTT assays were performed in order to evaluate changes in the metabolic activity of cells that had occurred as a consequence of treatment with the biscoumarin derivatives. A549 cells (15 × 10^3 cells/cm^2) and CCD-18Co ([…]) were seeded in 96-well microplates. The cells were treated for 24 and 48 h with different concentrations (10, 25, 35, 50, 65, 75, and 100 µM) of the derivatives. After the treatment, the MTT (3-(4,5-dimethylthiazol-2-yl)-2,5-diphenyltertrazolium bromide) solution in PBS (5 mg mL^−1) was added to each well. […]. The absorbance of formazan (λ = 584 nm) was measured using a BMG FLUOstar Optima spectrometer (BMG Labtech GmbH, Offenburg, Germany). The results were evaluated as percentages of the absorbance of the untreated control. Results are presented as the average percentage of cells from three independent experiments. IC50 values for the derivatives were extrapolated from a sigmoidal fit (dose–response curve) to the metabolic activity data using OriginPro 8.5.0 SR1 (OriginLab Corp., Northampton, MA, USA).

The test system of data set [5] is A549 cells. Put plainly: Mitotic activity (Ki67 index) by immunolabelling and confocal microscopy. The conditions noted are these: 24 h, vs control. The data set is classed as cell-based, human. The procedure: The studied biscoumarin derivatives were added to cells seeded on 12-well μ-Chamber slides for 24 h. After cultivation with the derivatives, the samples (both the control without the derivatives and experimental groups) were washed with a 0.1 M PBS solution buffer to remove all non-cell-absorbed derivative residues and fixed with 4% paraformaldehyde for 20 min at RT. Alternatively, cells were incubated with Mitotracker Red (0.5 µM; Thermo Fisher Scientific, Waltham, MA, USA) for 30 min at 37 °C, washed with 0.1 M PBS, and fixed with 4% paraformaldehyde for 20 min at RT. For the quantification of proliferative activity and programmed cell death, samples were incubated overnight at 4 °C with the mouse anti-Ki67 antibody (NCL-L-Ki67-MM1, 1:100, Leica Biosystems, Wetzlar, Germany) and rabbit anti-cleaved PARP (cat. no. 94885, 1:100, Cell Signaling, Danvers, MA, USA) diluted in 0.1 M PBS containing 1% normal donkey serum (Jackson Immunoresearch, Cambridgeshire, Great Britain) and 0.3% Triton-X 100. […]
All samples were evaluated using a Leica TCS SP5X confocal system (Leica Microsystems, Mannheim, Germany). The biscoumarin derivatives were visualized in cells using a 405 nm laser, and the fluorescence was captured in the range of 420–480 nm with identical exposure parameters for all samples. […] Microphotographs were taken with a 40× objective lens (NA = 0.75; voxel size 223 × 223 nm) and a 63× oil lens (NA = 1.4; voxel size 171 × 171 nm); the images were captured and analyzed using LAS AF software (Leica Microsystems, Wetzlar, Germany).
The proliferative activity of cells incubated with the studied derivatives was expressed as a Ki67 index. In all samples (n = 3 samples per each experimental group), the number of Ki67^+ nuclei was calculated in groups of 100 randomly selected cells. […]

Data set [6] concerns rat brain AChE. More on the design: method as in PMID 10213168. The conditions noted are these: cited from earlier work.
In data set [7] the test system is A549 cancer cell line. Conditions: ref 55 (Huang et al.); cited from earlier work.
Data set [8] deals with human umbilical vein endothelial cell (HUVEC) cell line. Conditions: ref 55 (Huang et al.); cited from earlier work.
The subject of data set [9] is hAChE. More on the design: method as in PMID 25812965, PMID 27744252, PMID 10213168. Conditions: Figure 2; cited from earlier work.
For data set [10], the system named is hMAO-B. More on the design: method as in PMID 25812965, PMID 27744252, PMID 10213168. Conditions: printed in Figure 2, quantity not named; cited from earlier work.
In data set [11] the test system is AChE. More on the design: method as in PMID 25812965, PMID 27744252, PMID 10213168. The conditions noted are these: Figure 2; cited from earlier work.
Data set [12] relates to BChE. More on the design: method as in PMID 25812965, PMID 27744252, PMID 10213168. The conditions noted are these: Figure 2; cited from earlier work.

Where two headings read alike, the source gives them in different places.

T1 sequence (P06276 29-602): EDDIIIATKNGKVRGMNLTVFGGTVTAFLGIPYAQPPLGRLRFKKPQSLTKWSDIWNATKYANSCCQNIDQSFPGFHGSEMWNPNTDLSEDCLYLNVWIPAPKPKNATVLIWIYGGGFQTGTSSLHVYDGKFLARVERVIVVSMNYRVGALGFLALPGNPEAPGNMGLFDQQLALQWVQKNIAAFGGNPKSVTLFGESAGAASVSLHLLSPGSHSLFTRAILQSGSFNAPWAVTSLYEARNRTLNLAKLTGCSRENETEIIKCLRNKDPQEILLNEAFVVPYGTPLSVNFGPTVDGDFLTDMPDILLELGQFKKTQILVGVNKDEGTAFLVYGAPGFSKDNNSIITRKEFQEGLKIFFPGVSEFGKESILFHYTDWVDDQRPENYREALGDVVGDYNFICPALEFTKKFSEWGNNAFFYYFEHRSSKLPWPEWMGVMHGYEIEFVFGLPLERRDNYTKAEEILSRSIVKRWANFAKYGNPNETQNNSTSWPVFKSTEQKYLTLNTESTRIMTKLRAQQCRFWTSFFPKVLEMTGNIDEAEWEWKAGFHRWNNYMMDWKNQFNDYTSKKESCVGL
T2 sequence (P22303 32-614): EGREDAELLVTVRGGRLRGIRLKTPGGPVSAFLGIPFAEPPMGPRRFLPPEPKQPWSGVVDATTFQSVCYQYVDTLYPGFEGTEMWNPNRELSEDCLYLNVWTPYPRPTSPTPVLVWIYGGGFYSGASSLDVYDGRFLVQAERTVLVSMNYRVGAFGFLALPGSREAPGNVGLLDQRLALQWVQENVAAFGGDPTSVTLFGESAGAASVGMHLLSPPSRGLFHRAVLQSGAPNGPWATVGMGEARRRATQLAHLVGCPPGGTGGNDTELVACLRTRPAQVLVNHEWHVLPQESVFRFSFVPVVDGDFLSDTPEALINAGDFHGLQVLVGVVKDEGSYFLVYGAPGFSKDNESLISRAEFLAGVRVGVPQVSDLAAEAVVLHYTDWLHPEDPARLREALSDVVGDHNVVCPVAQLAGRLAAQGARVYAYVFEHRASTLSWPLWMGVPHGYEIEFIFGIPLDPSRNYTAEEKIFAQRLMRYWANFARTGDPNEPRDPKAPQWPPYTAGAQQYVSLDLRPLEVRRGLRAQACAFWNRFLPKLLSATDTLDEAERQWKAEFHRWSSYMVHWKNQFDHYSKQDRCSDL

As for `COC(=O)Cc1cc(=O)oc2cc(OCCCN3CCN(CCNC(=O)Cc4cc(=O)oc5cc(O)ccc45)CC3)ccc12` [12a], the “IC50 ± S.E.M. hBChE” value in data set [1] is listed as “did not show inhibitory activity”. For the same compound, the IC50 was greater than 500 µM in [1] (read-out: IC50 ± S.E.M. hBChE); greater than 500 µM in data set [2] (read-out: IC50 ± S.E.M. hAChE); greater than 100 µM in [4] (A549, 24 h, read-out: IC50 A549 24 h); greater than 100 µM in data set [4] (A549, read-out: IC50 A549 48 h, 48 h). For the same compound, the “IC50 ± S.E.M. hAChE” value in data set [2] is on record as “did not show inhibitory activity”. Further, in data set [3] (PAMPA, pH 7.4), the Papp is 1.53 ± 0.64 ×10⁻⁶ cm/s. Further, the “CNS Predicted Availability” value in data set [3] (classification from PAMPA-BBB Pe) is “CNS− (CNS−: low BBB permeation predicted with Pe (×10^−6 cm s^−1) < 2.0)”. Besides, the “Metabolic activity of A549 cells (in words)” value in data set [4] (10 to 100 μM, 24 and 48 h) is reported as “did not lose the ability to convert dye”. In addition, in data set [5], the “Number of proliferating cells (Ki67 index), in words” value is “no significant changes”.
For `COc1cc2oc(=O)c(C)c(C)c2cc1OCCCN1CCN(c2ccccc2OC)CC1` [KA-672, ensaculin], in data set [6], the IC50 was 360 nM.
For `O=c1[nH]cc(F)c(=O)[nH]1` [5-fluorouracil], the 50% inhibitory concentration (IC50) in data set [7] is 36.3 µM; in data set [8], 25.1 µM.
For `Cc1c(C)c2ccc(OCCN3CCN(CCNc4c5c(nc6ccccc46)CCCC5)CC3)cc2oc1=O` [compound 6], in [9], the IC50 was 16.1 nM.
In the case of `Cc1c(N=O)c(=O)oc2cc(CCCN3CCC(Cc4ccccc4)CC3)ccc12` [compound 7], the IC50 in data set [10] was 5.9 µM; in [11], 300 nM; in [12], 980 nM.
Take `N.N.[Cl][Pt][Cl]` [cisplatin]: the IC50 was 13.5 µM in [7] and 9.68 µM in [8].
